Assay [1] concerns the target Ribosomal protein S6 kinase beta-1 (Homo sapiens, UniProt P23443). Put plainly: Selectivity interaction (ProQinase) EUB0000171b RPS6KB1.
For assay [2], the target named is Ribosomal protein S6 kinase alpha-5 (Homo sapiens) (UniProt O75582). The assay can be described thus: Selectivity interaction (Kinase panel (DSF assay)) EUB0001558a RPS6KA5. For orientation: In DSF a fluorescence change marks the thermal transition of the protein.
Assay [3] has as its target Serine/threonine-protein kinase SBK1 (Homo sapiens) (UniProt Q52WX2). The assay can be described thus: Selectivity interaction (Ambit KINOMEscan and KiNATiv profiling in Jurkat cells) EUB0000090b SBK1. It counts as cell-based. The conditions noted are these: at 1 µM.
Assay [4] has as its target Myosin-IIIa (Homo sapiens) (UniProt Q8NEV4). Put plainly: Selectivity interaction (KinomeScan (DiscoverX)) EUB0001079a MYO3A. The conditions noted are these: at 1 µM.
The target of assay [5] is Serine/threonine-protein kinase SIK3 (Homo sapiens) (UniProt Q9Y2K2). Put plainly: Selectivity interaction (KinomeScan (DiscoverX)) EUB0001049a SIK3. As to conditions: at 1 µM.
In assay [6] the target is Ribosomal protein S6 kinase alpha-3 (Homo sapiens, UniProt P51812). The assay can be described thus: Selectivity interaction (KinomeScan (DiscoverX)) EUB0000666a RPS6KA3. The conditions noted are these: at 10 µM.
For assay [7], the target named is DNA (cytosine-5)-methyltransferase 1 (Homo sapiens) (UniProt P26358). The assay can be described thus: Selectivity interaction (Methyltransferase screen (radiometric assays, panel of 8 PRMTs, 21 protein lysine methyltransferases, 3 DNA methyltransferases, and one RNA methyltransferase)) EUB0000272b DNMT1.
Assay [8] addresses Tyrosine-protein kinase HCK (Homo sapiens) (UniProt P08631). The assay can be described thus: Selectivity interaction (ActivX KiNativ screen (kinase selectivity in THP-1 cell lysates)) EUB0000639a HCK. It counts as subcellular. As to conditions: lysate, at 0.01 µM.
Assay [9] deals with T1, Serine/threonine-protein kinase ICK (Homo sapiens) (UniProt Q9UPZ9).
T1 sequence (whole entry): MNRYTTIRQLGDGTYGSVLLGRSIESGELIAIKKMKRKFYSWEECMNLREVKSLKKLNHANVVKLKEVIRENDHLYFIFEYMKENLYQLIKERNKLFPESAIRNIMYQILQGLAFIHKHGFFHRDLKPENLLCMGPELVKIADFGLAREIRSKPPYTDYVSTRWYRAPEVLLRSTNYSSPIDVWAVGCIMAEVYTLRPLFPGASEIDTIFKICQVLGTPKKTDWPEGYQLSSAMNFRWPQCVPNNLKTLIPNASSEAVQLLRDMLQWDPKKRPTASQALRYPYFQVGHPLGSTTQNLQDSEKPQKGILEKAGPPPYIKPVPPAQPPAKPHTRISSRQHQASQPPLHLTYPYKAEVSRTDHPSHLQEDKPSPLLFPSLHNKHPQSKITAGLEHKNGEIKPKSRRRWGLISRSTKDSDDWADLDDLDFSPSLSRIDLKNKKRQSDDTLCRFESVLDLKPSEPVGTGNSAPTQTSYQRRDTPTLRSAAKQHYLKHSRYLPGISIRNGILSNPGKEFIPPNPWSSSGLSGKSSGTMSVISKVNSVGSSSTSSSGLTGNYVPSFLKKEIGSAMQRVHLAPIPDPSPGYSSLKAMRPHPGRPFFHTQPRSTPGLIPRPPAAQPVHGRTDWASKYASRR
Put plainly: Selectivity interaction (KinomeScan (DiscoverX)) EUB0000229b ICK. As to conditions: at 10 µM.

Assay [10] concerns the target Neuropeptide Y receptor type 1 (Homo sapiens, UniProt P25929). The assay can be described thus: Selectivity interaction (Neuropeptide Y Y1 receptor binding assay, human recombinant ) EUB0000877a NPY1R.
Assay [11] addresses T2, Bromodomain-containing protein 1 (Homo sapiens) (UniProt O95696).
T2 sequence (whole entry): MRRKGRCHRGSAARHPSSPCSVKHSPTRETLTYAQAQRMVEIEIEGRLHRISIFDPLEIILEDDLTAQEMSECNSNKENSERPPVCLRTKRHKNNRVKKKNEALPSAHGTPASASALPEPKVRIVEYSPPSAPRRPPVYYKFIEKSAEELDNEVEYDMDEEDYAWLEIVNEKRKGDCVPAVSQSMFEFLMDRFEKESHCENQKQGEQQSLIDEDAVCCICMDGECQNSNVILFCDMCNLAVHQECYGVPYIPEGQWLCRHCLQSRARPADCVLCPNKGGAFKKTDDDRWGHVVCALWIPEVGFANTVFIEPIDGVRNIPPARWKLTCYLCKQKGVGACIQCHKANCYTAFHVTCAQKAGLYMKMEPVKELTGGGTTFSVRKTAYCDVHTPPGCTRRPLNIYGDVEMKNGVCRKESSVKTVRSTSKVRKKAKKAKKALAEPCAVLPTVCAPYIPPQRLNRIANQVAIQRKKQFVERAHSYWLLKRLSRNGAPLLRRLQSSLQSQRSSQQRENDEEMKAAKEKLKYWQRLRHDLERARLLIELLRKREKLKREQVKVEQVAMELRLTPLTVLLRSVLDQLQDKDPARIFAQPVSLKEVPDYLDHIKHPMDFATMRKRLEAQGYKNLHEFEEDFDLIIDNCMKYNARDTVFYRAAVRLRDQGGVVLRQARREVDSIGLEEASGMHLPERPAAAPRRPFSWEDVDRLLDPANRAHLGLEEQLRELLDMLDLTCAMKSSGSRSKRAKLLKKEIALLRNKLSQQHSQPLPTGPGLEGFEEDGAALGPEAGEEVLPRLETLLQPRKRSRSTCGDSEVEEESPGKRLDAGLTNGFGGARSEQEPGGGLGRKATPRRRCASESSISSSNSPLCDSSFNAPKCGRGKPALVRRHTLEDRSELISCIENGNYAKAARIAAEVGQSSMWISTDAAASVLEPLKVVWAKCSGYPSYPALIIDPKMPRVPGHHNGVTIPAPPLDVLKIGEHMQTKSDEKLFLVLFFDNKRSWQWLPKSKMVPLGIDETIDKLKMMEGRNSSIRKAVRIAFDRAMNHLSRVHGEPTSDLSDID
The assay can be described thus: Selectivity interaction (Human bromodomain panel (DSF assay)) EUB0000233b BRD1.

Assay [12] deals with Serine/threonine-protein kinase OSR1 (Homo sapiens) (UniProt O95747). The assay can be described thus: Selectivity interaction (Kinase panel (DSF assay)) EUB0001559a OXSR1.

Structures are written as SMILES. Bounds are passed on as bounds.

Chain of Ribosomal protein S6 kinase beta-1 (P23443 whole entry, looked up): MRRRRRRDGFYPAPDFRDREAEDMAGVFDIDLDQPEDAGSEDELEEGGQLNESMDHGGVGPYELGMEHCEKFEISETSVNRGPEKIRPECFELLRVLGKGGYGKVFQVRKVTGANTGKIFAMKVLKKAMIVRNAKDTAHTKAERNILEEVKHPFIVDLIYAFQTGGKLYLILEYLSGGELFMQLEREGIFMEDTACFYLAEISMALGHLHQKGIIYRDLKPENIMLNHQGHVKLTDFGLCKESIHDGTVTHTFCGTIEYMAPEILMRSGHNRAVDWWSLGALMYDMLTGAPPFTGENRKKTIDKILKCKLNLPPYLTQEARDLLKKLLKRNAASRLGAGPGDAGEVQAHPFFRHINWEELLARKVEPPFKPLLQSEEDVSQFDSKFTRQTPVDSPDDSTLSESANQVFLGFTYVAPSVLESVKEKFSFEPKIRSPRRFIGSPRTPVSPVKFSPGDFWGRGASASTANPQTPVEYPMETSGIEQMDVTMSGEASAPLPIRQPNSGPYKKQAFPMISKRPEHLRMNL
Chain of DNA (cytosine-5)-methyltransferase 1 (Homo sapiens) (P26358 whole entry): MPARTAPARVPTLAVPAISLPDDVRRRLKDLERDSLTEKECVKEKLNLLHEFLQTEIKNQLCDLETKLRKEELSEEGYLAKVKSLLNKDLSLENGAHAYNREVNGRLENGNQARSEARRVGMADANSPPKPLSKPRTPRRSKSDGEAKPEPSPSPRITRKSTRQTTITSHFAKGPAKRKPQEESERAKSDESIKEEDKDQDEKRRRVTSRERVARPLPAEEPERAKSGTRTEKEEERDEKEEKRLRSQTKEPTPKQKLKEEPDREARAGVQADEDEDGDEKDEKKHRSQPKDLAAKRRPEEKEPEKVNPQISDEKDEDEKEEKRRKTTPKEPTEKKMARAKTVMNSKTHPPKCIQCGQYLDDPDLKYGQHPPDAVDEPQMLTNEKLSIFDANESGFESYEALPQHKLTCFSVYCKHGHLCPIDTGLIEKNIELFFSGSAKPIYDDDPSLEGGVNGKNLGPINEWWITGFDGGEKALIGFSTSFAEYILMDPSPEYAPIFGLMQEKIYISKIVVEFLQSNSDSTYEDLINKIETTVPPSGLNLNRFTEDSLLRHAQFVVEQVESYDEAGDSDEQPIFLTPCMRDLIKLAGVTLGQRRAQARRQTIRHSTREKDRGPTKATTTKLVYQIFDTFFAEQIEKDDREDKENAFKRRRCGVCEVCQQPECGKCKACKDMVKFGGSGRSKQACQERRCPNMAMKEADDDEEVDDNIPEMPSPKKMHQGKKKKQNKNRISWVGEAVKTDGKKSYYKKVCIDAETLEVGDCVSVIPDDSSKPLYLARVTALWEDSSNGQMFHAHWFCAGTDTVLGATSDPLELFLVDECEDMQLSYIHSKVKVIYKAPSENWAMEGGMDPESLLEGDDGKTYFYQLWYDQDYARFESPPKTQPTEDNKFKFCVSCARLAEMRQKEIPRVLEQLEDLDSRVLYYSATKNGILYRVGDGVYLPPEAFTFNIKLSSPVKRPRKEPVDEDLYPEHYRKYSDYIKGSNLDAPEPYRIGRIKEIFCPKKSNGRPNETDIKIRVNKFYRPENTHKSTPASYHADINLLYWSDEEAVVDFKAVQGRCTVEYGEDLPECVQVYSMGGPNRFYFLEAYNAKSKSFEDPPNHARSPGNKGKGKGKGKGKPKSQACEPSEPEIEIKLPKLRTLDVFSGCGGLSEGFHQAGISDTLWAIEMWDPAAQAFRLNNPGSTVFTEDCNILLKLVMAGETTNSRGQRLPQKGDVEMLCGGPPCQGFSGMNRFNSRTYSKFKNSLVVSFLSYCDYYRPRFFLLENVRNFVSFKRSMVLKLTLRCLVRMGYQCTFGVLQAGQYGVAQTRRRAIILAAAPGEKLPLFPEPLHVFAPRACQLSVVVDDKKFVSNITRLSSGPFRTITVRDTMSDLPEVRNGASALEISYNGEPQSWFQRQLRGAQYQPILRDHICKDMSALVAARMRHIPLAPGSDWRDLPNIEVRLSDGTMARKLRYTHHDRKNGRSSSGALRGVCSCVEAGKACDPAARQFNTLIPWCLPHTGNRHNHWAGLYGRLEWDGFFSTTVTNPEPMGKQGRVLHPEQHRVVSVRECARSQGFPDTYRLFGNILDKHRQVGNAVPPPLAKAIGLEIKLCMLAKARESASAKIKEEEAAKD
Chain of Tyrosine-protein kinase HCK (Homo sapiens) (P08631 2-526 limits assumed): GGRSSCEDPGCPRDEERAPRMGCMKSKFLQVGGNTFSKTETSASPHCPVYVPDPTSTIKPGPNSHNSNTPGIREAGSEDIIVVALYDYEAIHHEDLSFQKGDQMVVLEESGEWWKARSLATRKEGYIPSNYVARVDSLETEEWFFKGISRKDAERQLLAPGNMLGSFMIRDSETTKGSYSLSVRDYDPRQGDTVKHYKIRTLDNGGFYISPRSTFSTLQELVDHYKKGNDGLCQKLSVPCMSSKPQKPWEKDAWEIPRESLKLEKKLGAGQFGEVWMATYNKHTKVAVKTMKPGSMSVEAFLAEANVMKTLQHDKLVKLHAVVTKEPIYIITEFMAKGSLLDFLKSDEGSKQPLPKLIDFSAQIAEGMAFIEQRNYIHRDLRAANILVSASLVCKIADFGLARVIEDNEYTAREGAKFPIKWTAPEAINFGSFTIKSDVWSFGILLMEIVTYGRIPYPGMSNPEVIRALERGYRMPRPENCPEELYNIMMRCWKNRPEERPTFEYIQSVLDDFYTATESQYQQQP
Chain of Serine/threonine-protein kinase OSR1 (Homo sapiens) (O95747 2-527 limits assumed): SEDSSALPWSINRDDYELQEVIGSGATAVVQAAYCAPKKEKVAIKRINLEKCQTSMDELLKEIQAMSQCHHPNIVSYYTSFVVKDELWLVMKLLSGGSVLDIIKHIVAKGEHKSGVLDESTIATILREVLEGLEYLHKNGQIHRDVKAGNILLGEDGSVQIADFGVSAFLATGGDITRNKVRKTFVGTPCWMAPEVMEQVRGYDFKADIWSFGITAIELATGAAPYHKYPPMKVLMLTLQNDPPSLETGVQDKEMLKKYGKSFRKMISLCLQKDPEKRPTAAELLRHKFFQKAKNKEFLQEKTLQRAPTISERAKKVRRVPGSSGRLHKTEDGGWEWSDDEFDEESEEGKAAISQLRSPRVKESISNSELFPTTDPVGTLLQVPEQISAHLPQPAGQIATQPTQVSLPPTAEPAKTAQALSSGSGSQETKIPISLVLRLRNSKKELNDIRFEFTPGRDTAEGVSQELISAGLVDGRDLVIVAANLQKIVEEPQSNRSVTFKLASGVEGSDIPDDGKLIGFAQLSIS
Chain of Serine/threonine-protein kinase SIK3 (Homo sapiens) (Q9Y2K2 whole entry, looked up): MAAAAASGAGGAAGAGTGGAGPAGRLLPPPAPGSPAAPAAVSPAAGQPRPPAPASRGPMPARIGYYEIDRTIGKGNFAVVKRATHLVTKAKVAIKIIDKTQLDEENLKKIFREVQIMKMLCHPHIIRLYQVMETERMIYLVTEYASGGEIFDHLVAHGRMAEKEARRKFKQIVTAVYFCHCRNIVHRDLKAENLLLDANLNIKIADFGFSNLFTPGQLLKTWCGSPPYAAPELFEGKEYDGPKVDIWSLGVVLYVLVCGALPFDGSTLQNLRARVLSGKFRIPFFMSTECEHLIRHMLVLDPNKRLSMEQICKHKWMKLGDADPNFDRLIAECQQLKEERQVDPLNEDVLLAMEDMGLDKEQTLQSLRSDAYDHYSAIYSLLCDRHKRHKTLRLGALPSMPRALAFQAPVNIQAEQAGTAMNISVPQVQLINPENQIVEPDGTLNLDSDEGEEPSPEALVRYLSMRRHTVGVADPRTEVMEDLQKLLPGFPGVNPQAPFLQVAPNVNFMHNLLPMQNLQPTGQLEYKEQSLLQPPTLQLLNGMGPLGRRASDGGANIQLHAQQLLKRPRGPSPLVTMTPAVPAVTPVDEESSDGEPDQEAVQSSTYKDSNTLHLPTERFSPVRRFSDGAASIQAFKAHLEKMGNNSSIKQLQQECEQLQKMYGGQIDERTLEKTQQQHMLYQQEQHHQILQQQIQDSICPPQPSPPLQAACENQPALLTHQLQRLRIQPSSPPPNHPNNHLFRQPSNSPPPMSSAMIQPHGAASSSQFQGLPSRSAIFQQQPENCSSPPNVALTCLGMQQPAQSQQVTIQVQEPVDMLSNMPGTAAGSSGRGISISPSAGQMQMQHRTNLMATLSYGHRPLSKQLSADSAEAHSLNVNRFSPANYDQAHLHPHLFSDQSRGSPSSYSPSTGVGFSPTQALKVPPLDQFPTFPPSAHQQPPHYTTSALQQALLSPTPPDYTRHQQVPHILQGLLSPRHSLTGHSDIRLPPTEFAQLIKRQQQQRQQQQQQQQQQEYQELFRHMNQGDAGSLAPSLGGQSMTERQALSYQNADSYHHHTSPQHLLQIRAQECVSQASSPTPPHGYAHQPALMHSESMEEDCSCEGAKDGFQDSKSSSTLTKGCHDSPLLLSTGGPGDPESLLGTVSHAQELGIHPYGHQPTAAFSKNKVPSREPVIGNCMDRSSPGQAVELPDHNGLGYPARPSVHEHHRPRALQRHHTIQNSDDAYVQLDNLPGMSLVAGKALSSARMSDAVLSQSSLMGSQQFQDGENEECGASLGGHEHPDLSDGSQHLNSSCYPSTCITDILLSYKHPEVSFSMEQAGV
Chain of Neuropeptide Y receptor type 1 (P25929 whole entry): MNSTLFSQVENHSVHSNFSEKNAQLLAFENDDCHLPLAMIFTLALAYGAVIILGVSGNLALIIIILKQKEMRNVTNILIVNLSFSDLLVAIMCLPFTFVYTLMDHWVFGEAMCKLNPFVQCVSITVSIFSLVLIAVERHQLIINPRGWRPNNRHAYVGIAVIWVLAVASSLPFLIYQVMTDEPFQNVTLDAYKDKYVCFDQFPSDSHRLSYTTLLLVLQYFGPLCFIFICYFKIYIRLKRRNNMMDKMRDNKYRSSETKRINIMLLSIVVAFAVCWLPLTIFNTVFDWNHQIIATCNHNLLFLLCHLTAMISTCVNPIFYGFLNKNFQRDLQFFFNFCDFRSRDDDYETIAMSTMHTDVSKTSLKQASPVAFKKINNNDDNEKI

Take `C=CC(=O)Nc1cccc(C(=O)Nc2ccc(Nc3cc(-c4[nH]c(SC)nc4C)ccn3)cc2)c1`: the % of control in assay [1] (at 1 µM) is 105%; in assay [1] (at 5 µM), 87%.
Take `CC(C)(O)[C@H](F)CN1Cc2cc(NC(=O)c3cnn4cccnc34)c(N3CCOCC3)cc2C1=O`: the dTM in [2] stood at 0.5 K.
Turning to `CN(C)C/C=C/C(=O)Nc1ccc(C(=O)N2CCCC(Nc3ncc(Cl)c(-c4c[nH]c5ccccc45)n3)C2)cc1` (centres undefined), the % of control in [3] is 100%.
As to `Nc1cnc(N2CCc3cc(S(=O)(=O)Nc4c(F)cc(Cl)cc4F)cc(N4CCCC4=O)c32)nc1` [TP-020n], in assay [4], the % of control turned out to be 77%.
As for `COc1cc(Nc2nc(C)cc(-c3cnn4nc(OC)ccc34)n2)cc(C(F)(F)F)c1`, the % of control in [5] is 82%.
For `O=C(NOC[C@H](O)CO)c1ccc(F)c(F)c1Nc1ccc(I)cc1F`, the % of control in assay [6] came out at 100%.
On to `Cc1cc(C)cc([C@H]2c3cc(C)ccc3NC(=O)CN2C(=O)c2ccc(Br)s2)c1`, for which the % of activity in assay [7] (at 1 µM) was determined as 98.7%; in [7] (at 10 µM), 104%.
For the compound `CC[C@@H]1[C@H](F)C(=O)N[C@@H]1COc1nccc2cc(C(N)=O)c(OC)cc12` [ZIMLOVISERTIB], the % of inhibition in [8] was -14.7%.
The compound `COc1cc(N(C)c2ccnc3ccc(C(F)(F)F)cc23)cc(OC)c1OC` gave a % binding in assay [9] of 73%.
Turning to `CCC(=O)N1CC[C@H](Nc2ncnc3c2CN(c2cnc(OC)c(C(F)(F)F)c2)CC3)C1` [LENIOLISIB], the IC50 (as a rule, the concentration at which inhibition is half-maximal) in [10] was greater than 30 µM.
In turn, `CN(C)CCCOc1ccc(-c2cc(NCCCn3cccn3)nc(S(C)(=O)=O)n2)cc1` came in with a dTM in assay [11] of less than 2 K.
`CN(C(=O)c1cnn2cccnc12)c1cc2c(cc1N1CCOCC1)C(=O)N(C[C@@H](F)C(C)(C)O)C2` displayed a dTM in assay [12] of 0.3 K.

The values above are taken from ChEMBL document CHEMBL5465560, “Selectivity Literature for EUbOPEN Chemogenomic Library” (2024).
